Experimental data: the kinase profiling compilation of Christmann-Franck et al. (2016)
Values belong to the molecule of their own block, whether it stands above or below them.

How the values were obtained:
Assay in all cases: radiometric filter-binding kinase assay
IGF1R (human) = IGF1R (human) (UniProt P08069)
CDK2 CCNA2 (human) = CDK2 CCNA2 (human) (UniProt P20248+P24941)
CAMKK2 (human) = CAMKK2 (human) (UniProt Q96RR4)
MINK1 (human) = MINK1 (human) (UniProt Q8N4C8)
PRKCZ (human) = PRKCZ (human) (UniProt Q05513)
PIM2 (human) = PIM2 (human) (UniProt Q9P1W9)
PIM2 (human), sequence (Q9P1W9 whole entry, looked up): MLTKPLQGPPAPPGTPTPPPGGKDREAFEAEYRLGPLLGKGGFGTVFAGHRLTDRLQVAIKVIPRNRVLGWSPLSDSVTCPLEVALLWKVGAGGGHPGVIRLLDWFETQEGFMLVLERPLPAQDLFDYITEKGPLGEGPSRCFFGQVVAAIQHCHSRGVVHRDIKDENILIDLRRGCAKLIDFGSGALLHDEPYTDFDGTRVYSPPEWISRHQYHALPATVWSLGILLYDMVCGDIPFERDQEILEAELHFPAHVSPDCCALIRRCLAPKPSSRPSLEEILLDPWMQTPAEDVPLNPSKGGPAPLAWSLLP

PRKACA (human) = PRKACA (human) (UniProt P17612)
LCK (mouse) = details: accession and sequence are those of the human protein
MKNK1 (human) = MKNK1 (human) (UniProt Q9BUB5)
RIPK2 (human) = RIPK2 (human) (UniProt O43353)
NUAK1 (human) = NUAK1 (human) (UniProt O60285)
SYK (human) = SYK (human) (UniProt P43405)
PRKAA1 or PRKAA2 (rat) = details: accession and sequence are those of the human protein
CSNK2A1 (human) = CSNK2A1 (human) (UniProt P68400)
MAP3K9 (human) = MAP3K9 (human) (UniProt P80192)
PAK4 (human) = PAK4 (human) (UniProt O96013)
MAPK10 (human) = MAPK10 (human) (UniProt P53779)
PHKG1 (human) = PHKG1 (human) (UniProt Q16816)
PHKG1 (human), sequence (Q16816 whole entry, looked up): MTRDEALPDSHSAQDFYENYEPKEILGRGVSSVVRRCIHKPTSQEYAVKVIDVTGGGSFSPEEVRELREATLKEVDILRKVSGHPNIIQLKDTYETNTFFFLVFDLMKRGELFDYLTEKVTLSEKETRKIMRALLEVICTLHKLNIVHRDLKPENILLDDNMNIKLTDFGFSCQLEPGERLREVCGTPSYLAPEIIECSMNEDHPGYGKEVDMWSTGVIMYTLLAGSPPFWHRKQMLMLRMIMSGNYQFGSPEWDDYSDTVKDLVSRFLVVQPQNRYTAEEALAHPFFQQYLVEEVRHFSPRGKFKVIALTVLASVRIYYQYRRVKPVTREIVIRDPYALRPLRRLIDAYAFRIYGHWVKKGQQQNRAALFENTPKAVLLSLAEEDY

DYRK1A (human) = DYRK1A (human) (UniProt Q13627)
EPHB3 (human) = EPHB3 (human) (UniProt P54753)
AURKB (human) = AURKB (human) (UniProt Q96GD4)
INSR (human) = INSR (human) (UniProt P06213)
INSR (human), sequence (P06213 whole entry, looked up): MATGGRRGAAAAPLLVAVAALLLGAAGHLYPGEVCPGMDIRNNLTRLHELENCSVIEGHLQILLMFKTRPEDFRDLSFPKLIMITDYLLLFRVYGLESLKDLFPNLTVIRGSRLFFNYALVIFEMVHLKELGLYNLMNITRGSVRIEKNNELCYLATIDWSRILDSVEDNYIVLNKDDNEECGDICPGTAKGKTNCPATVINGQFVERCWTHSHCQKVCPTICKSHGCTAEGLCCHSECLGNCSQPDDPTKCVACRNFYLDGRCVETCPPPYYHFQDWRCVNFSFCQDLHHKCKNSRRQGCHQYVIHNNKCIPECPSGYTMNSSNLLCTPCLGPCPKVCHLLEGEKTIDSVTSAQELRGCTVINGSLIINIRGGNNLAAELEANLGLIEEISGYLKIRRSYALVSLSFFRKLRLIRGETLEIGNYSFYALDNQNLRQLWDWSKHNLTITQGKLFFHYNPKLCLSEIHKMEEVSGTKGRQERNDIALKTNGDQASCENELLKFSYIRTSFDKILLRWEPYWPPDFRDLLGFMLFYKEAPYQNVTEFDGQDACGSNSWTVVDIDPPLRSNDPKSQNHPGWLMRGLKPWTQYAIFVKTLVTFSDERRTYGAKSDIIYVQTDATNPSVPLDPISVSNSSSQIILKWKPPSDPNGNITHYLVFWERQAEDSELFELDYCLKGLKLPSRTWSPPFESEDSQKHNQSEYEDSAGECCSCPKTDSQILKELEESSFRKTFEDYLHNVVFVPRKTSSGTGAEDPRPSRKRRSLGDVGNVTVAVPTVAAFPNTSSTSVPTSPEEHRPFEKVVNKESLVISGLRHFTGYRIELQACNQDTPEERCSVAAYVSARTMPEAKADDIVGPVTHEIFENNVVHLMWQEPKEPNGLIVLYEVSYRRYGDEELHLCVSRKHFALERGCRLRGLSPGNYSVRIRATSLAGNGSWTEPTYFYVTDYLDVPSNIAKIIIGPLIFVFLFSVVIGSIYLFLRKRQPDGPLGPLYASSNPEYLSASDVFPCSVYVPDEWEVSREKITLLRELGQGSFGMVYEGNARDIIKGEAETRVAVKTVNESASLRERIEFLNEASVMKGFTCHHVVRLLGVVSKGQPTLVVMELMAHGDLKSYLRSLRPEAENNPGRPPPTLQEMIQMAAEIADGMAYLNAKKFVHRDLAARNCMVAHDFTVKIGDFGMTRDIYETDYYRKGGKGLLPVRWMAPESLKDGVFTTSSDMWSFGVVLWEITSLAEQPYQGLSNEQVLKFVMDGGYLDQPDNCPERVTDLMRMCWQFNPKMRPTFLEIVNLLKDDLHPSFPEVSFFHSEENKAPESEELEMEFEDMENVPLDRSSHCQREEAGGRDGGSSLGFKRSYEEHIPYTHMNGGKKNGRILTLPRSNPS

YES1 (human) = YES1 (human) (UniProt P07947)
MARK3 (human) = MARK3 (human) (UniProt P27448)
INSRR (human) = INSRR (human) (UniProt P14616)
[1] = tested on: AKT2 (human), P31751 [S474D]
CHEK1 (human) = CHEK1 (human) (UniProt O14757)
MAP2K1 (human) = MAP2K1 (human) (UniProt Q02750)
MAPK13 (human) = MAPK13 (human) (UniProt O15264)
MAPK13 (human), sequence (O15264 whole entry, looked up): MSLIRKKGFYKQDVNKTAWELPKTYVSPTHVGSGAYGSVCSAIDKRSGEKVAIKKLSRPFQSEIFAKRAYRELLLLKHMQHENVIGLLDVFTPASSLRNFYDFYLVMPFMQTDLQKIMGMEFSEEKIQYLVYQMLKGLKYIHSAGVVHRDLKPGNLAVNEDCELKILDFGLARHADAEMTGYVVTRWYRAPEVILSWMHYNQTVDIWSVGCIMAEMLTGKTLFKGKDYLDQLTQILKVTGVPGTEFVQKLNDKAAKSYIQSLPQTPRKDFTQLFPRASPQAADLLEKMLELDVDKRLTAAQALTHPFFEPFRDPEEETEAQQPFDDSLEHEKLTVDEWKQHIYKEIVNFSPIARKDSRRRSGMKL

SRC (human) = SRC (human) (UniProt P12931)
CaMK1 (human) = CaMK1 (human) (UniProt Q14012)
CaMK1 (human), sequence (Q14012 whole entry, looked up): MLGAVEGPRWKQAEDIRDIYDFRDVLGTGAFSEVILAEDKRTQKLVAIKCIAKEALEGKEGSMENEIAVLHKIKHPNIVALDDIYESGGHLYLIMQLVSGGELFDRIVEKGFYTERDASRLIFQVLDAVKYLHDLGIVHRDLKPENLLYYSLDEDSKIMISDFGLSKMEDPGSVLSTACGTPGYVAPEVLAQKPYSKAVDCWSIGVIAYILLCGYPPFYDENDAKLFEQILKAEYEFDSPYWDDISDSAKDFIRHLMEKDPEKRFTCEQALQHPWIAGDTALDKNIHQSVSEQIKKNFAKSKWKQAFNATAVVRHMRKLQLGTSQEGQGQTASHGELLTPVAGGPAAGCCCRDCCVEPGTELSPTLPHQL

MAP3K11 (human) = MAP3K11 (human) (UniProt Q16584)
MARK4 (human) = MARK4 (human) (UniProt Q96L34)
MST4 (human) = MST4 (human) (UniProt Q9P289)

CAMKK2 (human), sequence (Q96RR4 whole entry, looked up): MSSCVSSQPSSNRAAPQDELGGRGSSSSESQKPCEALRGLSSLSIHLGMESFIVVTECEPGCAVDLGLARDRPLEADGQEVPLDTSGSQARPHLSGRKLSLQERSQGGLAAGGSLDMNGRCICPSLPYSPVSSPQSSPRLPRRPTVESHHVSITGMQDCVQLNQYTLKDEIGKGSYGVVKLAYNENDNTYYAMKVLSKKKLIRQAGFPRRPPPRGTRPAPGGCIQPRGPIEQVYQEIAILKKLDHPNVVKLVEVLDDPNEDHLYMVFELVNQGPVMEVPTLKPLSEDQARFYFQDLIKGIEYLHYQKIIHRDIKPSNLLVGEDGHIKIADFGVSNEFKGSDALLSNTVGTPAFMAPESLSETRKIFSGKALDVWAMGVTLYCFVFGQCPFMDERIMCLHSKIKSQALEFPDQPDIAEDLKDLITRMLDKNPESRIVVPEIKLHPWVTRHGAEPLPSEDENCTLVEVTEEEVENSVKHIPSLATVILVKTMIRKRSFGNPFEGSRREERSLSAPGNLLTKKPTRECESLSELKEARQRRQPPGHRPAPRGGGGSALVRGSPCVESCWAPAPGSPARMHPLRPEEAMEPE
IGF1R (human), sequence (P08069 whole entry, looked up): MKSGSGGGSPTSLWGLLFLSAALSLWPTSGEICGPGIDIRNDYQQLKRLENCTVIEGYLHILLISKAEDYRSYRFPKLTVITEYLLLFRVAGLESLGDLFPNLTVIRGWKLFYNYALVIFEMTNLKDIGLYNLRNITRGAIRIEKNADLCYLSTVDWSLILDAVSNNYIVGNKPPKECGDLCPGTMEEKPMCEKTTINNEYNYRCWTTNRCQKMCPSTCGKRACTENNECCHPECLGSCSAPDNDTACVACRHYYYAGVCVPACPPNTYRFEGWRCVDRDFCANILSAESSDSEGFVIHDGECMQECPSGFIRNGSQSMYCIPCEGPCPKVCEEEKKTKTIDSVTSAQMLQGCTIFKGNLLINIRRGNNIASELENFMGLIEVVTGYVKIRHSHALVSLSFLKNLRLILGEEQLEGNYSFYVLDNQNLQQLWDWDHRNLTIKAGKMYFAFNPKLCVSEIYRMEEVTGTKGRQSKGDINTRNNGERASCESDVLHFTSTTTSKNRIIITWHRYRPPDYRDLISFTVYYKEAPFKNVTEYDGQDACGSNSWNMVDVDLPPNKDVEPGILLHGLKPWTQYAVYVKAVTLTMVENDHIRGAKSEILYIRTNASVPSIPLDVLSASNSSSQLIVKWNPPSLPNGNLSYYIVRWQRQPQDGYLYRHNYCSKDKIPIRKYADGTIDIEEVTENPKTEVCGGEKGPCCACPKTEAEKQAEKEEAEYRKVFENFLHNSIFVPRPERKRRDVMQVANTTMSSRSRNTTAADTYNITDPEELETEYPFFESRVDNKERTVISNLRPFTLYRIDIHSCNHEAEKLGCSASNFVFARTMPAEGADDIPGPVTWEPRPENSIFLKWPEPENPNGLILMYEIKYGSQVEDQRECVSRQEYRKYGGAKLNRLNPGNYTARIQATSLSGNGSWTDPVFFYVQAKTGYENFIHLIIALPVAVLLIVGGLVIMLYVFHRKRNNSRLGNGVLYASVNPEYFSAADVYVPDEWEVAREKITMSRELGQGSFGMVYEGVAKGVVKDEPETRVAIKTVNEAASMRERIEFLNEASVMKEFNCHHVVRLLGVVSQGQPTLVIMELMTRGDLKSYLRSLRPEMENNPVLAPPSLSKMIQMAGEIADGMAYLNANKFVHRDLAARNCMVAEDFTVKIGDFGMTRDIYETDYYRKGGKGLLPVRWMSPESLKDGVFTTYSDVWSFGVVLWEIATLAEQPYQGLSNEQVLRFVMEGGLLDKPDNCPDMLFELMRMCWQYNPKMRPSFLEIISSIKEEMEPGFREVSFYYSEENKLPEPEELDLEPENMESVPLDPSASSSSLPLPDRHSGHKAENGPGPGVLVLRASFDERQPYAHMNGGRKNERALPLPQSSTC

- residual activity (IGF1R (human); compound 1.0 µM): 111%
- residual activity (IGF1R (human); compound 10.0 µM): 98%
- residual activity (CDK2 CCNA2 (human); compound 1.0 µM): 93%
- residual activity (CDK2 CCNA2 (human); compound 10.0 µM): 107%
- residual activity (CAMKK2 (human); compound 1.0 µM): 127%
- residual activity (CAMKK2 (human); compound 10.0 µM): 122%
- residual activity (MINK1 (human); compound 10.0 µM): 57%
- residual activity (PRKCZ (human); compound 1.0 µM): 96%
- residual activity (PRKCZ (human); compound 10.0 µM): 103%
- residual activity (PIM2 (human); compound 1.0 µM): 98%
- residual activity (PIM2 (human); compound 10.0 µM): 77%
- residual activity (PRKACA (human); compound 1.0 µM): 111%
- residual activity (PRKACA (human); compound 10.0 µM): 114%
- residual activity (LCK (mouse); compound 1.0 µM): 102%
- residual activity (LCK (mouse); compound 10.0 µM): 97%
- residual activity (MKNK1 (human); compound 1.0 µM): 97%
- residual activity (MKNK1 (human); compound 10.0 µM): 79%
- residual activity (RIPK2 (human); compound 1.0 µM): 115%
- residual activity (RIPK2 (human); compound 10.0 µM): 95%
- residual activity (NUAK1 (human); compound 1.0 µM): 107%
- residual activity (NUAK1 (human); compound 10.0 µM): 86%
- residual activity (SYK (human); compound 1.0 µM): 101%
- residual activity (SYK (human); compound 10.0 µM): 107%
- residual activity (PRKAA1 or PRKAA2 (rat); compound 1.0 µM): 101%
- residual activity (CSNK2A1 (human); compound 1.0 µM): 83%
- residual activity (CSNK2A1 (human); compound 10.0 µM): 29%
- residual activity (MAP3K9 (human); compound 1.0 µM): 105%
- residual activity (MAP3K9 (human); compound 10.0 µM): 89%
- residual activity (PAK4 (human); compound 1.0 µM): 89%
- residual activity (PAK4 (human); compound 10.0 µM): 76%
- residual activity (MAPK10 (human); compound 1.0 µM): 105%
- residual activity (MAPK10 (human); compound 10.0 µM): 107%
- residual activity (PHKG1 (human); compound 1.0 µM): 104%
- residual activity (PHKG1 (human); compound 10.0 µM): 94%
- residual activity (DYRK1A (human); compound 1.0 µM): 94%
- residual activity (DYRK1A (human); compound 10.0 µM): 85%
- residual activity (EPHB3 (human); compound 1.0 µM): 102%
- residual activity (EPHB3 (human); compound 10.0 µM): 118%
- residual activity (AURKB (human); compound 1.0 µM): 104%
- residual activity (AURKB (human); compound 10.0 µM): 105%
- residual activity (INSR (human); compound 1.0 µM): 101%
- residual activity (INSR (human); compound 10.0 µM): 97%
- residual activity (YES1 (human); compound 1.0 µM): 113%
- residual activity (YES1 (human); compound 10.0 µM): 103%
- residual activity (MARK3 (human); compound 1.0 µM): 117%
- residual activity (MARK3 (human); compound 10.0 µM): 109%
- residual activity (INSRR (human); compound 10.0 µM): 80%
- residual activity ([1]; compound 10.0 µM): 94%
- residual activity (CHEK1 (human); compound 1.0 µM): 104%
- residual activity (CHEK1 (human); compound 10.0 µM): 109%
- residual activity (MAP2K1 (human); compound 1.0 µM): 86%
- residual activity (MAP2K1 (human); compound 10.0 µM): 91%
- residual activity (MAPK13 (human); compound 1.0 µM): 100%
- residual activity (MAPK13 (human); compound 10.0 µM): 103%
- residual activity (SRC (human); compound 1.0 µM): 94%
- residual activity (SRC (human); compound 10.0 µM): 83%
- residual activity (CaMK1 (human); compound 1.0 µM): 97%
- residual activity (CaMK1 (human); compound 10.0 µM): 91%
- residual activity (MAP3K11 (human); compound 10.0 µM): 71%
- residual activity (MARK4 (human); compound 1.0 µM): 98%
- residual activity (MARK4 (human); compound 10.0 µM): 89%
- residual activity (MST4 (human); compound 1.0 µM): 102%
- residual activity (MST4 (human); compound 10.0 µM): 104%
SMILES: O=C(O)c1cc(N=Nc2ccc(S(=O)(=O)Nc3ccccn3)cc2)ccc1O

- residual activity (IGF1R (human); compound 1.0 µM): 86%
- residual activity (IGF1R (human); compound 10.0 µM): 120%
- residual activity (CDK2 CCNA2 (human); compound 1.0 µM): 77%
- residual activity (CDK2 CCNA2 (human); compound 10.0 µM): 93%
- residual activity (CAMKK2 (human); compound 1.0 µM): 91%
- residual activity (CAMKK2 (human); compound 10.0 µM): 86%
- residual activity (MINK1 (human); compound 1.0 µM): 103%
- residual activity (MINK1 (human); compound 10.0 µM): 99%
- residual activity (PRKCZ (human); compound 1.0 µM): 70%
- residual activity (PRKCZ (human); compound 10.0 µM): 83%
- residual activity (PIM2 (human); compound 1.0 µM): 95%
- residual activity (PIM2 (human); compound 10.0 µM): 105%
- residual activity (PRKACA (human); compound 1.0 µM): 95%
- residual activity (PRKACA (human); compound 10.0 µM): 93%
- residual activity (LCK (mouse); compound 1.0 µM): 116%
- residual activity (LCK (mouse); compound 10.0 µM): 111%
- residual activity (MKNK1 (human); compound 1.0 µM): 86%
- residual activity (MKNK1 (human); compound 10.0 µM): 78%
- residual activity (RIPK2 (human); compound 10.0 µM): 112%
- residual activity (NUAK1 (human); compound 1.0 µM): 108%
- residual activity (NUAK1 (human); compound 10.0 µM): 101%
- residual activity (SYK (human); compound 1.0 µM): 84%
- residual activity (SYK (human); compound 10.0 µM): 125%
- residual activity (PRKAA1 or PRKAA2 (rat); compound 1.0 µM): 94%
- residual activity (PRKAA1 or PRKAA2 (rat); compound 10.0 µM): 102%
- residual activity (CSNK2A1 (human); compound 1.0 µM): 95%
- residual activity (CSNK2A1 (human); compound 10.0 µM): 87%
- residual activity (MAP3K9 (human); compound 1.0 µM): 100%
- residual activity (MAP3K9 (human); compound 10.0 µM): 96%
- residual activity (PAK4 (human); compound 1.0 µM): 95%
- residual activity (PAK4 (human); compound 10.0 µM): 97%
- residual activity (MAPK10 (human); compound 1.0 µM): 99%
- residual activity (MAPK10 (human); compound 10.0 µM): 110%
- residual activity (PHKG1 (human); compound 1.0 µM): 103%
- residual activity (PHKG1 (human); compound 10.0 µM): 97%
- residual activity (DYRK1A (human); compound 1.0 µM): 81%
- residual activity (DYRK1A (human); compound 10.0 µM): 94%
- residual activity (EPHB3 (human); compound 1.0 µM): 112%
- residual activity (EPHB3 (human); compound 10.0 µM): 104%
- residual activity (AURKB (human); compound 1.0 µM): 104%
- residual activity (AURKB (human); compound 10.0 µM): 106%
- residual activity (INSR (human); compound 1.0 µM): 88%
- residual activity (INSR (human); compound 10.0 µM): 106%
- residual activity (YES1 (human); compound 1.0 µM): 107%
- residual activity (YES1 (human); compound 10.0 µM): 92%
- residual activity (MARK3 (human); compound 1.0 µM): 94%
- residual activity (MARK3 (human); compound 10.0 µM): 98%
- residual activity (INSRR (human); compound 1.0 µM): 81%
- residual activity (INSRR (human); compound 10.0 µM): 87%
- residual activity ([1]; compound 1.0 µM): 79%
- residual activity ([1]; compound 10.0 µM): 68%
- residual activity (CHEK1 (human); compound 1.0 µM): 109%
- residual activity (CHEK1 (human); compound 10.0 µM): 103%
- residual activity (MAP2K1 (human); compound 1.0 µM): 85%
- residual activity (MAP2K1 (human); compound 10.0 µM): 109%
- residual activity (MAPK13 (human); compound 1.0 µM): 96%
- residual activity (MAPK13 (human); compound 10.0 µM): 102%
- residual activity (SRC (human); compound 1.0 µM): 98%
- residual activity (SRC (human); compound 10.0 µM): 110%
- residual activity (CaMK1 (human); compound 1.0 µM): 94%
- residual activity (CaMK1 (human); compound 10.0 µM): 94%
- residual activity (MAP3K11 (human); compound 1.0 µM): 109%
- residual activity (MAP3K11 (human); compound 10.0 µM): 109%
- residual activity (MARK4 (human); compound 1.0 µM): 98%
- residual activity (MARK4 (human); compound 10.0 µM): 96%
- residual activity (MST4 (human); compound 1.0 µM): 103%
- residual activity (MST4 (human); compound 10.0 µM): 112%
SMILES: CN1C(=O)[C@@H](Cc2c[nH]c3ccccc23)NC1=S
